Laboratory results reported in patent publication US8586552B2, “4,6-substituted 2,5-dideoxystreptamine aminoglycoside antibiotics” (SelectX Pharmaceuticals, Inc., priority 2012, dated 2013).
Values after ≈ are worked out from the molar mass of the structure shown.

What was measured:
[1] = tested on: Klebsiella pneumoniae KR3 (clinical isolate possessing high-level aminoglycoside resistance); assay: MIC against Klebsiella pneumoniae clinical isolate KR3; type: cell-based; conditions: Klebsiella pneumonia KR3; in µg/mL
From the text: (§1) Klebsiella pneumoniae (Kpn) and Escherichia coli (Eco) are gram-negative (like Pae), enteric pathogens with increasing clinical relevance. Many clinical isolates of Kpn and Eco harbor extended-spectrum beta-lactamases and are no longer sensitive to most beta-lactam antibiotics. We acquired clinical isolates of Klebsiella pneumoniae and Escherichia coli (Micromyx LLC, Kalamazoo, Mich.) and used this panel to test compounds for anti-enteric activity.

[2] = tested on: Pseudomonas aeruginosa PR1 (clinical isolate with intermediate aminoglycoside resistance); assay: MIC against Pseudomonas aeruginosa clinical isolate PR1; type: cell-based; conditions: Pseudomonas aeruginosa resistant strain PR1
From the text: (§2) Pseudomonas aeruginosa is a prominent nosocomial pathogen. In addition to intrinsic antibiotic resistance to several antibiotics, Pseudomonas has acquired multiple additional mechanisms of resistance. As a result, therapeutic options for the treatment of infections caused by Pseudomonas aeruginosa are limited. We acquired clinical isolates of Pseudomonas aeruginosa (Micromyx LLC, Kalamazoo, Mich.), and used this panel to test compounds for Pseudomonicidal activity. […] For each strain and antibiotic, the mechanism(s) of resistance was inferred from the resistance profile. The presence of specific AGMEs was confirmed by colony PCR.

[3] = tested on: Pseudomonas aeruginosa PR3 (high-level, efflux-mediated, pan-aminoglycoside resistance); assay: MIC against Pseudomonas aeruginosa clinical isolate PR3; type: cell-based; conditions: for MIC PR3: Pseudomonas aeruginosa resistant strain PR3
From the text: as §2

[4] = tested on: Pseudomonas aeruginosa (Pae, PAWT, ATCC #27853); assay: MIC against Pseudomonas aeruginosa reference strain PAWT; type: cell-based; conditions: Pseudomonas aeruginosa wild type PAWT
From the text: (§3) For evaluation of efficacy, we assembled panels of representative gram-negative pathogens, including Pseudomonas aeruginosa (Pae, PAWT, ATCC #27853), Klebsiella pneumoniae (Kpn, KPWT, ATCC #700603), Acinetobacter baumannii (Aba, ABWT, ATCC #BAA-747) and Escherichia coli (Eco, ECWT, ATCC #25922). These reference strains are useful indicator organisms to characterize compound activity against bacteria from a pathogenic genus in the absence of multiple resistance mechanisms. Two strains (PAWT and ECWT) are reference strains cited within the Clinical and Laboratory Standards Institute (CLSI) Standards for susceptibility testing by Minimum Inhibitory Concentration (MIC) (SXPS2) and are well suited for quality control. ABWT and ECWT are widely susceptible to aminoglycoside antibiotics, whereas PAWT and KPWT harbor a single aminoglycoside-modifying enzyme (AGME) that targets 4,6-substituted-2-deoxystreptamine AGs. […]

[5] = tested on: Klebsiella pneumoniae KR1 (clinical isolate with intermediate aminoglycoside resistance); assay: MIC against Klebsiella pneumoniae clinical isolate KR1; type: cell-based; conditions: Klebsiella pneumonia KR1; in µg/mL
From the text: as §1

[6] = tested on: Klebsiella pneumoniae (Kpn, KPWT, ATCC #700603); assay: MIC against Klebsiella pneumoniae reference strain KPWT; type: cell-based; conditions: for MIC KPWT: Klebsiella pneumonia KPWT, Table 5 (unit not given), in µg/mL
From the text: as §3, with “These reference strains are useful indicator organisms to characterize compound activity against bacteria from a pathogenic genus in the absence of multiple resistance mechanisms.” left out

[7] = tested on: Pseudomonas aeruginosa PR2 (clinical isolate with intermediate aminoglycoside resistance); assay: MIC against Pseudomonas aeruginosa clinical isolate PR2; type: cell-based; conditions: Pseudomonas aeruginosa resistant strain PR2
From the text: as §2

[8] = tested on: Klebsiella pneumoniae KR2 (clinical isolate with intermediate aminoglycoside resistance); assay: MIC against Klebsiella pneumoniae clinical isolate KR2; type: cell-based; conditions: Klebsiella pneumonia KR2
From the text: as §1

[9] = tested on: Acinetobacter baumannii (Aba, ABWT, ATCC #BAA-747); assay: MIC against Acinetobacter baumannii reference strain ABWT; type: cell-based
From the text: as §3

[10] = tested on: more than fifty resistant contemporary clinical isolates of Pseudomonas aeruginosa; assay: MIC90 against panel of resistant clinical isolates of Pseudomonas aeruginosa; type: cell-based
From the text: To assess this, a panel of more than fifty resistant contemporary clinical isolates of Pseudomonas aeruginosa were obtained from multiple sources including JMI Laboratories (North Liberty, Iowa), Pfizer (Groton, Conn.), Micromyx (Kalamazoo, Mich.), Dr. J. Chow (Wayne State University). Strains were characterized for resistance to a wide variety of classes of antibiotics including aminoglycosides, β-lactams and fluoroquinolones. […] This reflects the difficulty in treating clinical Pseudomonas aeruginosa infections. […] Using this stringent panel, we tested a subset of compounds of the invention (Table 4).

[11] = tested on: Acinetobacter baumannii AB1; assay: MIC against Acinetobacter baumannii clinical isolate AB1; type: cell-based
From the text: (§4) Acinetobacter baumannii is another clinically important and very challenging gram negative pathogen. Members of the Acinetobacter genus, including baumannii, have a remarkable ability to upregulate and acquire resistance determinants. Coupled with its ability to survive for prolonged periods in a hospital environment, A. baumannii is an emerging threat for healthcare institutions globally. We acquired clinical isolates of Acinetobacter baumannii and used this panel to test compounds for anti-Acinetobacter activity. We first tested reference AGs against our panel of Aba strains.

[12] = tested on: fifty resistant contemporary clinical isolates of Acinetobacter baumannii; assay: MIC90 against panel of resistant clinical isolates of Acinetobacter baumannii; type: cell-based
From the text: As in the case of Pseudomonas aeruginosa and Klebsiella pneumoniae, we considered whether the SAR observed against select Acinetobacter baumannii strains 1, 2 or 3 was indicative of general potency. […] Using this stringent Acinetobacter baumannii panel, we tested a subset of compounds of the invention.

panel of E. coli strains = assay: MIC90 against a panel of E. coli strains; type: cell-based; conditions: in µg/mL
[13] = tested on: Acinetobacter baumannii AB2; assay: MIC against Acinetobacter baumannii clinical isolate AB2; type: cell-based
From the text: as §4

[14] = tested on: fifty resistant contemporary clinical isolates of Klebsiella pneumoniae; assay: MIC90 against panel of resistant clinical isolates of Klebsiella pneumoniae; type: cell-based; conditions: for MIC90 Klebsiella pneumonia: stringent panel of resistant clinical isolates, Table 5
From the text: Using this stringent Klebsiella pneumoniae panel, we tested a subset of compounds of the invention.

[15] = tested on: Acinetobacter baumannii AB3; assay: MIC against Acinetobacter baumannii clinical isolate AB3; type: cell-based
From the text: as §4

[16] = tested on: resistant strain of P. aeruginosa (P. aeruginosa 6294 MLP-3); assay: Rat neutropenic thigh model against resistant P. aeruginosa; type: in vivo; conditions: resistant P. aeruginosa
Method: The compound identified as SXP 2523 was further tested in vivo against a resistant strain of P. aeruginosa. Twenty male Sprague Dawley rats were rendered neutropenic by treatment with cyclophosphamide on day −4 and day −1 with 100 mg/kg and 75 mg/kg, respectively. Rats were infected with P. aeruginosa 6294 MLP-3, via injection into the right thigh muscle of 0.1 mL per rat. Two hours post infection rats were treated intravenously with either SXP-2523 or amikacin in a total dose of 10 or 60 mg/kg, respectively. The test article and control agent were delivered at 2, 4, and 6 hours post infection. Five rats were treated with each drug concentration. One group of five rats were euthanized at initiation of treatment and thigh CFUs were determined (T=Rx). Twenty-four hours post infection; rats were euthanized by CO2 inhalation. The right thigh muscles of the rats were aseptically removed, weighed, homogenized, serially diluted, and plated on BHI medium. The plates were incubated overnight at 37° C. in 5% CO2. CFU per gram of thigh was calculated by enumerating the plated colonies then adjusting for serial dilutions and the weight of the thigh.

[17] = tested on: Escherichia coli (Eco, ECWT, ATCC #25922); assay: MIC against Escherichia coli reference strain ECWT; type: cell-based; conditions: ATCC25922
From the text: For evaluation of efficacy, we assembled panels of representative gram-negative pathogens, including Pseudomonas aeruginosa (Pae, PAWT, ATCC #27853), Klebsiella pneumoniae (Kpn, KPWT, ATCC #700603), Acinetobacter baumannii (Aba, ABWT, ATCC #BAA-747) and Escherichia coli (Eco, ECWT, ATCC #25922). These reference strains are useful indicator organisms to characterize compound activity against bacteria from a pathogenic genus in the absence of multiple resistance mechanisms. Two strains (PAWT and ECWT) are reference strains cited within the Clinical and Laboratory Standards Institute (CLSI) Standards for susceptibility testing by Minimum Inhibitory Concentration (MIC) (SXPS2) and are well suited for quality control. ABWT and ECWT are widely susceptible to aminoglycoside antibiotics, whereas PAWT and KPWT harbor a single aminoglycoside-modifying enzyme (AGME) that targets 4,6-substituted-2-deoxystreptamine AGs.

[18] = tested on: Klebsiella pneumoniae screening panel KPWT, KR1, KR2, KR3; assay: Klebsiella pneumoniae screening panel (KPWT, KR1, KR2, KR3), reference AGs; type: cell-based
From the text: as §1

P. aeruginosa 6294 MLP-3 = assay: Rat neutropenic thigh model; type: in vivo
Method: The compound identified as SXP 2523 was selected for further testing in vivo. Twenty male Sprague Dawley rats were pre-treated with cyclophosphamide to render them neutropenic on day −4 and day −1 with 100 mg/kg and 75 mg/kg respectively. Rats were infected with P. aeruginosa 6294 MLP-3, via injection into the right thigh muscle of 0.1 mL per rat. Two hours post infection rats were treated intravenously with either SXP-2523 or amikacin in a total dose of 10 or 60 mg/kg, respectively. The test article and control agent were delivered at 2, 4, and 6 hours post infection. Five rats were treated with each drug concentration. One group of five rats was euthanized at initiation of treatment and thigh CFUs were processed (T=Rx). Twenty-four hours post infection rats were euthanized by CO2 inhalation. The right thigh muscles of the rats were aseptically removed, weighed, homogenized, serially diluted, and plated on MacConkey medium. The plates were incubated overnight at 37° C. in 5% CO2. CFU per gram of thigh was calculated by enumerating the plated colonies then adjusting for serial dilutions and the weight of the thigh. The following table 7 summarizes the results Table 6: […]

[19] = Log CFU/thigh, total dose 10 mg/kg SXP-2523 or 60 mg/kg amikacin iv
[20] = neutropenic male Sprague Dawley rats, iv at 2, 4, 6 h post infection, total dose 10 mg/kg SXP-2523 or 60 mg/kg amikacin, 24 h post infection

Structure (SMILES) | MIC KR3 [1] | MIC PR1 [2] [µg/mL] | MIC PR3 [3] [µg/mL] | MIC PAWT [4] [µg/mL] | MIC KR1 [5] | MIC KPWT [6] | MIC PR2 [7] [µg/mL] | MIC KR2 [8] | MIC ABWT [9] [µg/mL] | MIC90 Pseudomonas aeruginosa [10] [µg/mL] | MIC AB1 [11] [µg/mL] | MIC90 Acinetobacter baumannii [12] [µg/mL] | MIC90 E. coli (panel of E. coli strains) | MIC AB2 [13] [µg/mL] | MIC90 Klebsiella pneumonia [14] [µg/mL] | MIC AB3 [15] [µg/mL] | also measured
NCC[C@H](O)C(=O)N[C@@H]1C[C@H](N)[C@@H](O[C@H]2O[C@H](CN)[C@@H](O)[C@H](O)[C@H]2O)[C@@H](F)[C@H]1O[C@H]1O[C@H](CNC2CC2)[C@@H](O)[C@H](N)[C@H]1O [SXP1212-56″-16] | 16 | 2 to 8 | 32 (≈ 51.1 µM) | 1 (≈ 1.6 µM) | 0.5-1 | <0.25 | <0.25 to 4 | 1 | – | – | – | – | – | – | – | – | –
NCCC(O)C(=O)NC1CC(N)C(OC2OC(CN)C(O)CC2N)C(F)C1OC1OC(CNCC2CNC2)C(O)C(N)C1O (stereo not drawn) [SXP 2525] | 1 | 8 (≈ 12.5 µM) | 8 (≈ 12.5 µM) | 0.25 to 0.5 | 1 | 0.5 | 1 (≈ 1.57 µM) | 0.5 | 0.5 (≈ 0.783 µM) | 4 (≈ 6.26 µM) | 2 to 4 | 2 (≈ 3.13 µM) | 2 | 1 (≈ 1.57 µM) | 1 (≈ 1.57 µM) | 8 (≈ 12.5 µM) | –
NCCC(O)C(=O)NC1CC(N)C(OC2OC(CN)C(O)CC2N)C(F)C1OC1OC(CNCC(O)CN)C(O)C(N)C1O (stereo not drawn) [SXP 2524] | 0.5-1 | 4 (≈ 6.22 µM) | 8 (≈ 12.4 µM) | 0.25 (≈ 0.389 µM) | 0.5-1 | 0.5 | 0.5 (≈ 0.778 µM) | 0.5 | 0.5 (≈ 0.778 µM) | 4 (≈ 6.22 µM) | 2 (≈ 3.11 µM) | 2 (≈ 3.11 µM) | 2-4 | 1 (≈ 1.56 µM) | 1 (≈ 1.56 µM) | 8 (≈ 12.4 µM) | –
NCCC(O)C(=O)NC1CC(N)C(OC2OC(CN)C(O)CC2N)C(F)C1OC1OC(CNC2CNC2)C(O)C(N)C1O (stereo not drawn) [SXP 2554] | 0.25-0.5 | 2 (≈ 3.2 µM) | 8 (≈ 12.8 µM) | 0.25 (≈ 0.4 µM) | 0.25 | 0.125 | 0.5 (≈ 0.8 µM) | 0.125 | 0.25 (≈ 0.4 µM) | 4 (≈ 6.4 µM) | 0.5 (≈ 0.8 µM) | 2 (≈ 3.2 µM) | 2 | 0.25 to 0.5 | 0.5 (≈ 0.8 µM) | 2 to 4 | –
NCC[C@H](O)C(=O)N[C@@H]1C[C@H](N)[C@@H](O[C@H]2O[C@H](CN)[C@@H](O)[C@H](O)[C@H]2O)[C@H](O)[C@H]1O[C@H]1O[C@H](CO)[C@@H](O)[C@H](N)[C@H]1O [amikacin] | – | – | – | – | – | – | – | – | – | – | – | – | – | – | – | – | MIC ([9]; ATCCBAA747): 1 µg/mL (≈ 1.71 µM); MIC [2]: 8 µg/mL (≈ 13.7 µM); MIC ([3]; Pseudomonas aeruginosa, read-out: MIC PR3): 64 µg/mL (≈ 109 µM); MIC ([4]; ATCC27853): 1 to 2 µg/mL (≈ 1.71 to 3.42 µM); Change from 24 hr. control [16, 19]: −2.73; Change from T = Rx controls [16, 19]: 0.43; Log CFU/thigh [16, 20]: 3.92 Log CFU/thigh; MIC90 ([10]; Pseudomonas aeruginosa): ≥ 64 µg/mL; MIC [17]: 2 to 4 µg/mL (≈ 3.42 to 6.83 µM); potency against Klebsiella pneumoniae test panel [18]: potency against 3 of 4 strains tested; Change from 24 hr. control (P. aeruginosa 6294 MLP-3; [19]): −1.49; Change from T = Rx controls (P. aeruginosa 6294 MLP-3; [19]): 1.59; Log CFU/thigh (P. aeruginosa 6294 MLP-3; [20]): 5.77 Log CFU/thigh; MIC ([6]; ATCC700603, Klebsiella pneumoniae KPWT, Table 2): 1 µg/mL (≈ 1.71 µM); MIC [7]: 8 to 16 µg/mL (≈ 13.7 to 27.3 µM); MIC90 ([14]; Klebsiella pneumoniae, fifty resistant contemporary clinical isolates, reference antibiotics): ≥ 64 µg/mL
